# Calls of active or inactive are those of the source. No rule for the calls is given here. Where a SMILES comes first, the peptide text is derived from it. [ ]: non-standard residue; d: D form. ξ: configuration not given here. Trp(1-OMe) = COn1cc(C[C@H](N)C(=O)O)c2ccccc21; Asu = N[C@@H](CCCCCC(=O)O)C(=O)O; Ile(3ξ) = CCC(C)[C@H](N)C(=O)O; dPip = O=C(O)[C@H]1CCCCN1
# System: CCRIS mutagenicity, Ames/micronucleus/aberration tests
# Assay: CCRIS mutagenicity studies
# [1] = Test System: AMES SALMONELLA TYPHIMURIUM, Strain/Indicator: TA98, Metabolic Activation: NONE, Method: PREINCUBATION
# [2] = Test System: AMES SALMONELLA TYPHIMURIUM, Strain/Indicator: TA98, Metabolic Activation: RAT, LIVER, S-9, KANECHLOR 500, Method: PREINCUBATION
# [3] = Test System: AMES SALMONELLA TYPHIMURIUM, Strain/Indicator: TA100, Metabolic Activation: NONE, Method: PREINCUBATION
# [4] = Test System: AMES SALMONELLA TYPHIMURIUM, Strain/Indicator: TA100, Metabolic Activation: RAT, LIVER, S-9, KANECHLOR 500, Method: PREINCUBATION
# [5] = Test System: AMES SALMONELLA TYPHIMURIUM, Strain/Indicator: TA100, Metabolic Activation: RAT, LIVER, S-9, AROCLOR 1254, Method: PREINCUBATION
# [6] = Test System: AMES SALMONELLA TYPHIMURIUM, Strain/Indicator: TA102, Metabolic Activation: NONE, Method: PREINCUBATION
# [7] = Test System: AMES SALMONELLA TYPHIMURIUM, Strain/Indicator: TA98, Metabolic Activation: NONE, Method: STANDARD PLATE
# [8] = Test System: AMES SALMONELLA TYPHIMURIUM, Strain/Indicator: TA100, Metabolic Activation: NONE, Method: STANDARD PLATE
compound,measurement,setting,value
CC(=O)Nc1ccc2ncccc2c1,mutagenic call,[1],inactive; negative
same,mutagenic call,[2],inactive; negative
same,mutagenic call,[3],inactive; negative
same,mutagenic call,[4],active; positive
CCC(C)[C@@H]1NC(=O)[C@H](Cc2cn(OC)c3ccccc23)NC(=O)[C@H](CCCCCC(=O)OC)NC(=O)[C@H]2CCCCN2C1=O (stereo not given in full) (cyclo([Asu](OMe)[Trp(1-OMe)][Ile(3ξ)][dPip])),mutagenic call,"End Point: IN VITRO CHROMOSOMAL ABERRATIONS, Test System: CHO CELLS, Metabolic Activation: NONE",active; positive (structural changes)
same,mutagenic call,"End Point: IN VITRO CHROMOSOMAL ABERRATIONS, Test System: CHO CELLS, Metabolic Activation: RAT, LIVER, S-9, AROCLOR 1254",active; positive (structural changes)
same,mutagenic call,"End Point: IN VIVO MICRONUCLEUS, Test System: BONE MARROW POLYCHROMATIC ERYTHROCYTES, Species: MOUSE, Strain/Sex: ICR/MALE, Route: IP INJECTION",active; positive
same,mutagenic call,[1],inactive; negative
same,mutagenic call,"Test System: AMES SALMONELLA TYPHIMURIUM, Strain/Indicator: TA98, Metabolic Activation: RAT, LIVER, S-9, AROCLOR 1254, Method: PREINCUBATION",inactive; negative
same,mutagenic call,[3],inactive; negative
same,mutagenic call,[5],inactive; negative
same,mutagenic call,[6],inactive; negative
same,mutagenic call,"Test System: AMES SALMONELLA TYPHIMURIUM, Strain/Indicator: TA102, Metabolic Activation: RAT, LIVER, S-9, AROCLOR 1254, Method: PREINCUBATION",inactive; negative
same,mutagenic call,"Test System: AMES SALMONELLA TYPHIMURIUM, Strain/Indicator: TA1535, Metabolic Activation: NONE, Method: PREINCUBATION",inactive; negative
same,mutagenic call,"Test System: AMES SALMONELLA TYPHIMURIUM, Strain/Indicator: TA1535, Metabolic Activation: RAT, LIVER, S-9, AROCLOR 1254, Method: PREINCUBATION",inactive; negative
same,mutagenic call,"Test System: AMES SALMONELLA TYPHIMURIUM, Strain/Indicator: TA1537, Metabolic Activation: NONE, Method: PREINCUBATION",inactive; negative
same,mutagenic call,"Test System: AMES SALMONELLA TYPHIMURIUM, Strain/Indicator: TA1537, Metabolic Activation: RAT, LIVER, S-9, AROCLOR 1254, Method: PREINCUBATION",inactive; negative
ONc1ccccc1-c1ccccc1,mutagenic call,[7],inactive; negative
same,mutagenic call,[8],active; positive
COC(=O)C12C[C@@]1(C=O)C(C=O)=C[C@@H]1CC(C)(C)C[C@@H]12 (stereo not given in full),mutagenic call,[7],active; positive
same,mutagenic call,[8],active; positive
same,mutagenic call,"Test System: AMES SALMONELLA TYPHIMURIUM, Strain/Indicator: TA2637, Metabolic Activation: NONE, Method: STANDARD PLATE",active; positive
CCCC(=O)OCc1ccccc1[N+](=O)[O-],mutagenic call,[1],inactive; negative
same,mutagenic call,[3],inactive; negative
same,mutagenic call,[5],inactive; negative
COc1ccc(O)c(C(C)(C)C)c1,mutagenic call,"Test System: AMES SALMONELLA TYPHIMURIUM, Strain/Indicator: TA97, Metabolic Activation: NONE, Method: PREINCUBATION",inactive; negative
same,mutagenic call,"Test System: AMES SALMONELLA TYPHIMURIUM, Strain/Indicator: TA97, Metabolic Activation: RAT, LIVER, S-9, PCB, Method: PREINCUBATION",inactive; negative
same,mutagenic call,[1],inactive; negative
same,mutagenic call,"Test System: AMES SALMONELLA TYPHIMURIUM, Strain/Indicator: TA98, Metabolic Activation: RAT, LIVER, S-9, PCB, Method: PREINCUBATION",inactive; negative
same,mutagenic call,[3],inactive; negative
same,mutagenic call,"Test System: AMES SALMONELLA TYPHIMURIUM, Strain/Indicator: TA100, Metabolic Activation: RAT, LIVER, S-9, PCB, Method: PREINCUBATION",inactive; negative
same,mutagenic call,[6],inactive; negative
same,mutagenic call,"Test System: AMES SALMONELLA TYPHIMURIUM, Strain/Indicator: TA102, Metabolic Activation: RAT, LIVER, S-9, PCB, Method: PREINCUBATION",inactive; negative
CCCC[N+](=O)[O-],mutagenic call,[1],inactive; negative
same,mutagenic call,"Test System: AMES SALMONELLA TYPHIMURIUM, Strain/Indicator: TA98, Metabolic Activation: RAT, LIVER, S-9, AROCLOR, Method: PREINCUBATION",inactive; negative
same,mutagenic call,[2],inactive; negative
same,mutagenic call,[3],inactive; negative
same,mutagenic call,"Test System: AMES SALMONELLA TYPHIMURIUM, Strain/Indicator: TA100, Metabolic Activation: RAT, LIVER, S-9, AROCLOR, Method: PREINCUBATION",inactive; negative
same,mutagenic call,[4],inactive; negative
same,mutagenic call,[6],inactive; negative
same,mutagenic call,"Test System: AMES SALMONELLA TYPHIMURIUM, Strain/Indicator: TA102, Metabolic Activation: RAT, LIVER, S-9, AROCLOR, Method: PREINCUBATION",inactive; negative
same,mutagenic call,"Test System: E. COLI, Strain/Indicator: WP2 UVRA (PKM101), Metabolic Activation: NONE, Method: PREINCUBATION",inactive; negative
same,mutagenic call,"Test System: E. COLI, Strain/Indicator: WP2 UVRA (PKM101), Metabolic Activation: RAT, LIVER, S-9, KANECHLOR 500, Method: PREINCUBATION",inactive; negative
same,mutagenic call,"Test System: UDS RAT HEPATOCYTES, Strain/Indicator: THY INCORP, Metabolic Activation: NONE",inactive; negative
c1ccc2cc3c(cc2c1)cc1ccc2cccc4ccc3c1c24,mutagenic call,"Test System: HUMAN H1A1V2 CELLS, Strain/Indicator: TK LOCUS, Metabolic Activation: NONE, Method: SUSPENSION/PLATE",active; positive

# — PubChem BioAssay AID1259407 (Chemical Carcinogenesis Research Information System (CCRIS), 2018)
